This note sets out measurements from patent US10004701B2, “Methods and compositions for treating infection” (UNIVERSITY OF ROCHESTER, priority 2012, dated 2018).

Structures are written as SMILES. Structures can show the parent of a compound that is named as a salt. Where two headings read alike, the source gives them in different places.

Holding throughout (assay): AK assay 384-well format, Prestwick library screening
One test deals with P. aeruginosa. The class given is cell-based, Pseudomonas aeruginosa. As to conditions: 50 μM final drug concentration; for fold induction at 50 µM: Pseudomonas aeruginosa, 3 h.
A further test relates to E. cloacae. The class given is cell-based, Enterobacter cloacae. The settings on record: 50 μM final drug concentration; for fold induction at 50 µM: Enterobacter cloacae, 3 h.
The subject of the next test is E. coli. The class given is cell-based, Escherichia coli. The settings on record: 50 μM final drug concentration; for fold induction at 50 µM: Escherichia coli, 3 h.
The next test deals with K. pneumoniae. It counts as cell-based, Klebsiella pneumoniae. The settings on record: 50 μM final drug concentration, cutoff for positive-scoring molecules 3-fold increase; for fold induction at 50 µM: Klebsiella pneumoniae, 3 h.
Test [1] relates to A. baumannii strain 98-37-09. The class given is cell-based, Acinetobacter baumannii. As to conditions: 50 μM final drug concentration; for fold induction at 50 µM: Acinetobacter baumannii, 983709, 3 h.
In the next test the test system is E. faecium. The class given is cell-based, Enterococcus faecium. As to conditions: 50 μM final drug concentration, cutoff for positive-scoring molecules 3-fold increase; for fold induction at 50 µM: Enterococcus faecium, 3 h.
The subject of test [2] is S. aureus strain USA300-0114. It counts as cell-based, Staphylococcus aureus. The settings on record: 50 μM final drug concentration; for fold induction at 50 µM: Staphylococcus aureus, USA300, 3 h.
The mark [3] stands for this setting: cutoff for positive-scoring molecules 3-fold increase, read-out: AK-based Prestwick Library Screening Results, P. aeruginosa (fold increase in extracellular AK activity).
Setting [4] is: cutoff for positive-scoring molecules 3-fold increase, read-out: AK-based Prestwick Library Screening Results, E. cloacae (fold increase in extracellular AK activity).
[5] abbreviates: cutoff for positive-scoring molecules 3-fold increase, read-out: AK-based Prestwick Library Screening Results, E. coli (fold increase in extracellular AK activity).
Where [6] appears, read: read-out: AK-based Prestwick Library Screening Results, K. pneumoniae (fold increase in extracellular AK activity).
[7] abbreviates: cutoff for positive-scoring molecules 3-fold increase, read-out: AK-based Prestwick Library Screening Results, A. baumannii (fold increase in extracellular AK activity).
The mark [8] stands for this setting: read-out: AK-based Prestwick Library Screening Results, E. faecium (fold increase in extracellular AK activity).
Where [9] appears, read: cutoff for positive-scoring molecules 3-fold increase, read-out: AK-based Prestwick Library Screening Results, S. aureus (fold increase in extracellular AK activity).
[10] abbreviates: cutoff for positive-scoring molecules 3-fold increase.
The mark [11] stands for this setting: planktonic P. aeruginosa, cutoff for positive-scoring molecules 3-fold increase, read-out: AK-based Prestwick Library Screening Results, P. aeruginosa (increase in extracellular AK activity).
[12] abbreviates: planktonic E. cloacae, cutoff for positive-scoring molecules 3-fold increase, read-out: AK-based Prestwick Library Screening Results, E. cloacae (increase in extracellular AK activity).
[13] abbreviates: planktonic E. coli, cutoff for positive-scoring molecules 3-fold increase, read-out: AK-based Prestwick Library Screening Results, E. coli (increase in extracellular AK activity).
Where [14] appears, read: planktonic K. pneumoniae, read-out: AK-based Prestwick Library Screening Results, K. pneumoniae (increase in extracellular AK activity).
Where [15] appears, read: planktonic A. baumannii, cutoff for positive-scoring molecules 3-fold increase, read-out: AK-based Prestwick Library Screening Results, A. baumannii (increase in extracellular AK activity).
Where [16] appears, read: planktonic E. faecium, read-out: AK-based Prestwick Library Screening Results, E. faecium (increase in extracellular AK activity).
The mark [17] stands for this setting: planktonic S. aureus, cutoff for positive-scoring molecules 3-fold increase, read-out: AK-based Prestwick Library Screening Results, S. aureus (increase in extracellular AK activity).

For `COc1ccccc1N1CCN(CC(O)COc2cccc3ccccc23)CC1` (stereo not drawn) [Naftopidil dihydrochloride], the fold induction at 50 µM in the test with P. aeruginosa (setting [3]) was found to be 0.7; with E. cloacae (setting [4]), 0.9; in the test with E. coli (setting [5]), 0.9; with K. pneumoniae (setting [6]), 0.6; in test [1] (setting [7]) it was 0.7; with E. faecium (setting [8]), 0.8. Moreover, the fold induction at 50 µM in test [2] (setting [9]) amounted to 0.5.
For the compound `C#C[C@]1(O)CC[C@H]2[C@@H]3CCc4cc(OC)ccc4[C@H]3CC[C@@]21C` [Ethynylestradiol 3-methyl ether], the “AK-based Prestwick Library Screening Results, P. aeruginosa (fold increase in extracellular AK activity)” value in the test on P. aeruginosa (setting [10]) came out at 1.1. The “AK-based Prestwick Library Screening Results, E. cloacae (fold increase in extracellular AK activity)” value with E. cloacae (setting [10]) amounted to 1.5. For the same compound, the “AK-based Prestwick Library Screening Results, E. coli (fold increase in extracellular AK activity)” value in the test on E. coli (setting [10]) is reported as 1.2. Besides, the “AK-based Prestwick Library Screening Results, K. pneumoniae (fold increase in extracellular AK activity)” value in the test on K. pneumoniae is on record as 0.8. For the same compound, the “AK-based Prestwick Library Screening Results, A. baumannii (fold increase in extracellular AK activity)” value in test [1] (setting [10]) was determined as 1.1. Besides, the “AK-based Prestwick Library Screening Results, E. faecium (fold increase in extracellular AK activity)” value in the test with E. faecium came to 0.9. Further, the “AK-based Prestwick Library Screening Results, S. aureus (fold increase in extracellular AK activity)” value in test [2] (setting [10]) is reported as 0.8.
For `Cc1cc(C(C)(C)C)cc(C)c1CC1=NCCN1` [Xylometazoline hydrochloride], the fold induction at 50 µM in the test with P. aeruginosa (planktonic P. aeruginosa, 384-well, […], read-out: AK-based Prestwick Library Screening Results: P. aeruginosa (increase in extracellular AK activity)) amounted to 1.2; in the test with E. cloacae (planktonic E. cloacae, 384-well, […], read-out: AK-based Prestwick Library Screening Results: E. cloacae (increase in extracellular AK activity)), 1.4; in the test with E. coli (planktonic E. coli, 384-well, […], read-out: AK-based Prestwick Library Screening Results: E. coli (increase in extracellular AK activity)), 1.2; in the test on K. pneumoniae (planktonic K. pneumoniae, 384-well, read-out: AK-based Prestwick Library Screening Results: K. pneumoniae (increase in extracellular AK activity)), 0.9; in test [1] (planktonic A. baumannii, 384-well, […], read-out: AK-based Prestwick Library Screening Results: A. baumannii (increase in extracellular AK activity)), 1.3; with E. faecium (planktonic E. faecium, 384-well, read-out: AK-based Prestwick Library Screening Results: E. faecium (increase in extracellular AK activity)), 1. In test [2] (planktonic S. aureus, 384-well, […], read-out: AK-based Prestwick Library Screening Results: S. aureus (increase in extracellular AK activity)), the fold induction at 50 µM worked out at 1.2.
For `CC(CCc1ccccc1)NCC(O)c1ccc(O)c(C(N)=O)c1` (stereo not drawn) [Labetalol hydrochloride], the fold induction at 50 µM in the test on P. aeruginosa (384-well format, cutoff for positive-scoring molecules 3-fold increase, read-out: AK-based Prestwick Library Screening Results, P. aeruginosa (increase in extracellular AK activity)) turned out to be 0.9; in the test on E. cloacae (384-well format, cutoff for positive-scoring molecules 3-fold increase, read-out: AK-based Prestwick Library Screening Results, E. cloacae (increase in extracellular AK activity)) it was 1.3; in the test with E. coli (384-well format, cutoff for positive-scoring molecules 3-fold increase, read-out: AK-based Prestwick Library Screening Results, E. coli (increase in extracellular AK activity)), 0.9; in the test with K. pneumoniae (384-well format, read-out: AK-based Prestwick Library Screening Results, K. pneumoniae (increase in extracellular AK activity)) it was 0.7; in test [1] (384-well format, cutoff for positive-scoring molecules 3-fold increase, read-out: AK-based Prestwick Library Screening Results, A. baumannii (increase in extracellular AK activity)), 0.9; in the test with E. faecium (384-well format, read-out: AK-based Prestwick Library Screening Results, E. faecium (increase in extracellular AK activity)) it was 0.9. For the same compound, in test [2] (384-well format, cutoff for positive-scoring molecules 3-fold increase, read-out: AK-based Prestwick Library Screening Results, S. aureus (increase in extracellular AK activity)), the fold induction at 50 µM amounted to 0.8.
Turning to `COc1ccc2c(c1)N(C[C@H](C)CN(C)C)c1ccccc1S2.O=C(O)/C=C\C(=O)O` [Methotrimeprazine maleat salt], the “AK-based Prestwick Library Screening Results, P. aeruginosa (fold increase in extracellular AK activity)” value in the test on P. aeruginosa (setting [10]) amounted to 1.1. The “AK-based Prestwick Library Screening Results, E. cloacae (fold increase in extracellular AK activity)” value in the test on E. cloacae (setting [10]) came out at 1.8. Also, the “AK-based Prestwick Library Screening Results, E. coli (fold increase in extracellular AK activity)” value with E. coli (setting [10]) was 1.3. In addition, the “AK-based Prestwick Library Screening Results, K. pneumoniae (fold increase in extracellular AK activity)” value in the test with K. pneumoniae amounted to 1.0. The “AK-based Prestwick Library Screening Results, A. baumannii (fold increase in extracellular AK activity)” value in test [1] (setting [10]) turned out to be 1.1. In addition, the “AK-based Prestwick Library Screening Results, E. faecium (fold increase in extracellular AK activity)” value in the test on E. faecium came out at 1.0. In addition, in test [2] (setting [10]), the “AK-based Prestwick Library Screening Results, S. aureus (fold increase in extracellular AK activity)” value amounted to 1.2.
As for `COc1cccc2c1C(=O)c1c(O)c3c(c(O)c1C2=O)C[C@@](O)(C(=O)CO)C[C@@H]3O[C@H]1C[C@H](N)[C@H](O)[C@H](C)O1` [Doxorubicin hydrochloride], the fold induction at 50 µM worked out at 0.6 in the test on P. aeruginosa (setting [11]); 1.2 in the test with E. cloacae (setting [12]); 1 in the test with E. coli (setting [13]); 0.7 in the test on K. pneumoniae (setting [14]); 1 in test [1] (setting [15]); 1.7 in the test on E. faecium (setting [16]). Moreover, the fold induction at 50 µM in test [2] (setting [17]) stood at 0.9.
As to `CC1CC(OC(=O)C(O)c2ccccc2)CC(C)(C)N1C` (stereo not drawn) [Eucatropine hydrochloride], the fold induction at 50 µM came to 1.1 in the test with P. aeruginosa (setting [3]); 1.6 in the test with E. cloacae (setting [4]); 1.2 with E. coli (setting [5]); 0.9 in the test on K. pneumoniae (setting [6]); 1.1 in test [1] (setting [7]); 1.1 in the test with E. faecium (setting [8]). In test [2] (setting [9]), the fold induction at 50 µM came out at 1.3.
`CCc1cccc(CC)c1NC(=O)CN(CC(=O)O)CC(=O)O` [Etifenin]: the fold induction at 50 µM was determined as 0.9 in the test with P. aeruginosa (setting [11]); 1 in the test on E. cloacae (setting [12]); 1.1 in the test with E. coli (setting [13]); 0.8 in the test with K. pneumoniae (setting [14]); 0.9 in test [1] (setting [15]); 0.9 in the test with E. faecium (setting [16]). Further, the fold induction at 50 µM in test [2] (setting [17]) turned out to be 0.5.
Regarding `CCN1CCN(C(=O)N[C@@H](C(=O)N[C@@H]2C(=O)N3[C@@H]2SC(C)(C)[C@@H]3C(=O)O)c2ccccc2)C(=O)C1=O` [Piperacillin sodium salt], the fold induction at 50 µM in the test on P. aeruginosa (planktonic, cutoff for positive-scoring molecules 3-fold increase, read-out: AK-based Prestwick Library Screening Results, P. aeruginosa (fold increase in extracellular AK activity)) turned out to be 8.7; with E. cloacae (planktonic, cutoff for positive-scoring molecules 3-fold increase, read-out: AK-based Prestwick Library Screening Results, E. cloacae (fold increase in extracellular AK activity)) it was 1.3; with E. coli (planktonic, cutoff for positive-scoring molecules 3-fold increase, read-out: AK-based Prestwick Library Screening Results, E. coli (fold increase in extracellular AK activity)) it was 12.6; in the test on K. pneumoniae (planktonic, read-out: AK-based Prestwick Library Screening Results, K. pneumoniae (fold increase in extracellular AK activity)) it was 2.3; in test [1] (planktonic, cutoff for positive-scoring molecules 3-fold increase, read-out: AK-based Prestwick Library Screening Results, A. baumannii (fold increase in extracellular AK activity)), 3.3; in the test with E. faecium (planktonic, read-out: AK-based Prestwick Library Screening Results, E. faecium (fold increase in extracellular AK activity)), 0.9. Also, the fold induction at 50 µM in test [2] (planktonic, cutoff for positive-scoring molecules 3-fold increase, read-out: AK-based Prestwick Library Screening Results, S. aureus (fold increase in extracellular AK activity)) was 0.4.
